Data published in patent US20050004126A1 (priority 2001, published 2005).

These molecules were tested against MMP-13CD (catalytic domain of collagenase 3) (Homo sapiens, UniProt P45452) (assay: biochemical).
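Note: inhibition of enzymatic thiopeptolide substrate cleavage (100 µM) in pH 6.0 MES buffer with CaCl2 and DTNB, comparing hydrolysis with versus without inhibitor.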

IC50 | SMILES
9 nM | Cn1c(=O)n(Cc2cccs2)c(=O)c2cc(C(=O)NCc3ccc4c(c3)OCO4)ccc21 [Synthesis Example 31, 1-Methyl-2,4-dioxo-3-(thien-2-ylmethyl)-1,2,3,4-tetrahydroquinazoline-6-carboxylic acid (benzo[1,3]dioxol-5-ylmethyl)amide]
96 nM | O=C(OCc1ccccc1)c1cnc2[nH]c(=O)n(Cc3ccccc3)c(=O)c2c1 [Benzyl 3-benzyl-2,4-dioxo-1,2,3,4-tetrahydropyrido[2,3-d]pyrimidine-6-carboxylate]
183 nM | O=C(NCc1ccncc1)c1ccc2[nH]c(=O)n(Cc3ccccc3)c(=O)c2c1 [3-Benzyl-2,4-dioxo-1,2,3,4-tetrahydroquinazoline-6-carboxylic acid (4-pyridylmethyl)amide]
16 nM | O=C(OCc1ccncc1)c1ccc2[nH]c(=O)n(Cc3cccs3)c(=O)c2c1 [Synthesis Example 47, 4-Pyridylmethyl 2,4-dioxo-3-thien-2-ylmethyl-1,2,3,4-tetrahydroquinazoline-6-carboxylate]
12 nM | COc1ccc(CNC(=O)c2ccc3c(c2)c(=O)n(Cc2ccccc2)c(=O)n3C)cc1 [Synthesis Example 26, 3-Benzyl-1-methyl-2,4-dioxo-1,2,3,4-tetrahydroquinazoline-6-carboxylic acid 4-methoxybenzylamide]
62 nM | O=C(OCc1ccncc1)c1cnc2[nH]c(=O)n(Cc3ccccc3)c(=O)c2c1 [4-Pyridylmethyl 3-benzyl-2,4-dioxo-1,2,3,4-tetrahydropyrido[2,3-d]-pyrimidine-6-carboxylate]
1 nM | Cn1c(=O)n(Cc2ccccc2)c(=O)c2cc(C(=O)NCc3ccc4c(c3)OCO4)ncc21 [Synthesis Example 53, 3-Benzyl-1-methyl-2,4-dioxo-1,2,3,4-tetrahydro-pyrido[3,4-d]pyrimidine-6-carboxylic acid (1,3-benzodioxol-5-ylmethyl)-amide]
7 nM | Cn1c(=O)n(Cc2ccccc2)c(=O)c2cc(C(=O)NCc3ccc4c(c3)OCO4)cnc21 [Synthesis Example 49, 3-Benzyl-1-methyl-2,4-dioxo-1,2,3,4-tetrahydro-pyrido[2,3-d]pyrimidine-6-carboxylic acid (1,3-benzodioxol-5-ylmethyl)-amide]
300 nM | O=C(NCc1ccccc1)c1ccc2[nH]c(=O)n(Cc3cccs3)c(=O)c2c1 [2,4-Dioxo-3-thien-2-ylmethyl-1,2,3,4-tetrahydroquinazoline-6-carboxylic acid benzylamide]
4 nM | Cn1c(=O)n(Cc2ccccc2)c(=O)c2cc(C(=O)OCc3ccncc3)ccc21 [Synthesis Example 44, 4-Pyridylmethyl 3-benzyl-1-methyl-2,4-dioxo-1,2,3,4-tetrahydroquinazoline-6-carboxylate]
1.6 nM | COc1ccc(CNC(=O)c2cnc3c(c2)c(=O)n(Cc2ccc(C(=O)O)cc2)c(=O)n3C)cc1 [Synthesis Example 50, 4-[6-(4-Methoxy-benzylcarbamoyl)-1-methyl-2,4-dioxo-1,4-dihydro-2H-pyrido[2,3-d]pyrimidin-3-ylmethyl]-benzoic acid]
31 nM | Cn1c(=O)n(Cc2ccccc2)c(=O)c2cc(C(=O)OCc3ccccc3)ccc21 [Synthesis Example 42, Benzyl 3-benzyl-1-methyl-2,4-dioxo-1,2,3,4-tetrahydroquinazoline-6-carboxylate]
96 nM | Cn1c(=O)n(Cc2cccs2)c(=O)c2cc(C(=O)NCc3ccccc3)ccc21 [1-Methyl-2,4-dioxo-3-thien-2-ylmethyl-1,2,3,4-tetrahydroquinazoline-6-carboxylic acid benzylamide]
4 nM | COC(=O)c1ccc(Cn2c(=O)c3cc(C(=O)NCc4ccc(OC)cc4)ccc3n(C)c2=O)cc1 [Synthesis Example 38, 4-[6-(4-Methoxy-benzylcarbamoyl)-1-methyl-2,4-dioxo-1,4-dihydro-2H-quinazolin-3-ylmethyl]-benzoic acid methyl ester]
32 nM | COc1ccc(CNC(=O)c2cnc3c(c2)c(=O)n(Cc2ccc(F)cc2)c(=O)n3C)cc1 [Synthesis Example 52, 3-(4-Fluoro-benzyl)-1-methyl-2,4-dioxo-1,2,3,4-tetrahydro-pyrido[2,3-d]pyrimidine-6-carboxylic acid 4-methoxy-benzylamide]
21 nM | O=C(NCc1ccc2c(c1)OCO2)c1ccc2[nH]c(=O)n(Cc3ccccc3)c(=O)c2c1 [Synthesis Example 23, 3-Benzyl-2,4-dioxo-1,2,3,4-tetrahydroquinazoline-6-carboxylic acid (benzo[1,3]dioxol-5-ylmethyl)amide]
2250 nM | COC(=O)c1ccc(CNC(=O)c2ccc3c(c2)c(=O)n(Cc2ccccc2)c(=O)n3C)cc1 [Methyl 4-({[1-(3-benzyl-1-methyl-2,4-dioxo-1,2,3,4-tetrahydroquin-azolin-6-yl)methanoyl]amino}methyl)benzoate]
51 nM | COc1cc(CNC(=O)c2ccc3c(c2)c(=O)n(Cc2ccccc2)c(=O)n3C)ccc1O [Synthesis Example 25, 3-Benzyl-1-methyl-2,4-dioxo-1,2,3,4-tetrahydroquinazoline-6-carboxylic acid 4-hydroxy-3-methoxybenzylamide]
5 nM | Cn1c(=O)n(Cc2ccccc2)c(=O)c2cc(C(=O)NCc3ccc4c(c3)OCO4)ccc21 [Synthesis Example 24]
3 nM | Cn1c(=O)n(Cc2ccc3c(c2)OCO3)c(=O)c2cc(C(=O)NCc3ccc4c(c3)OCO4)ccc21 [Synthesis Example 35, 3-(Benzo[1,3]dioxol-5-ylmethyl)-1-methyl-2,4-dioxo-1,2,3,4-tetrahydroquinazoline-6-carboxylic acid (benzo[1,3]dioxol-5-ylmethyl)amide]
26 nM | CCn1c(=O)n(Cc2ccccc2)c(=O)c2cc(C(=O)NCc3ccc4c(c3)OCO4)ccc21 [Synthesis Example 36, 3-Benzyl-1-ethyl-2,4-dioxo-1,2,3,4-tetrahydroquinazoline-6-carboxylic acid (benzo[1,3]dioxol-5-ylmethyl)amide]
7 nM | O=C(OCc1ccc2c(c1)OCO2)c1ccc2[nH]c(=O)n(Cc3ccccc3)c(=O)c2c1 [Synthesis Example 45, Benzo[1,3]dioxol-5-ylmethyl 3-benzyl-2,4-dioxo-1,2,3,4-tetrahydroquinazoline-6-carboxylate]
28 nM | O=C(NCc1ccc2c(c1)OCO2)c1ccc2[nH]c(=O)n(Cc3ccc(Cl)cc3)c(=O)c2c1 [Synthesis Example 32, 3-(4-Chlorobenzyl)-2,4-dioxo-1,2,3,4-tetrahydroquinazoline-6-carboxylic acid (benzo[1,3]dioxol-5-ylmethyl)amide]
700 nM | Cn1c(=O)n(CCc2ccccc2)c(=O)c2cc(C(=O)NCc3ccc4c(c3)OCO4)ccc21 [1-Methyl-2,4-dioxo-3-phenethyl-1,2,3,4-tetrahydroquinazoline-6-carboxylic acid (benzo[1,3]dioxol-5-ylmethyl)amide]
22 nM | Cn1c(=O)n(C/C=C/c2ccccc2)c(=O)c2cc(C(=O)NCc3ccc4c(c3)OCO4)ccc21 [Synthesis Example 40, 1-Methyl-2,4-dioxo-3-((E)-3-phenylallyl)-1,2,3,4-tetrahydroquinazoline-6-carboxylic acid (benzo[1,3]dioxol-5-ylmethyl)amide]
